The source made the active and inactive calls. The calls are words filed in the database; no cut-off is given here.
Assays:
[1] = target: T1, Sucrase-isomaltase, intestinal (Rattus norvegicus, UniProt P23739); assay: Inhibition of sucrase in rat small intestinal brush border membrane vesicles using sucrose as substrate incubated for 30 mins by glucose-oxidase method; format: cell membranes, Small intestine, Membrane vesicle
[2] = Inhibition of maltase in rat small intestinal brush border membrane vesicles using maltose as substrate incubated for 30 mins by glucose-oxidase method; format: cell membranes, Small intestine, Membrane vesicle
[3] = target: T1, Sucrase-isomaltase, intestinal; assay: Binding affinity to sucrase in rat small intestinal brush border membrane vesicles assessed as inhibition constant using sucrose as substrate incubated for 30 mins by glucose-oxidase method; format: cell membranes, Small intestine, Membrane vesicle
[4] = target: Sucrase-isomaltase, intestinal (Rattus norvegicus) (UniProt P23739); assay: Potency index, ratio of neoponkoranol IC50 to test compound IC50 for inhibition of sucrase in rat small intestinal brush border membrane vesicles using sucrose as substrate incubated for 30 mins by glucose-oxidase method; format: cell membranes; conditions: Small intestine, Membrane vesicle
[5] = target: Lysosomal alpha-glucosidase (Rattus norvegicus) (UniProt Q6P7A9); assay: Potency index, ratio of neoponkoranol IC50 to test compound IC50 for inhibition of maltase in rat small intestinal brush border membrane vesicles using maltose as substrate incubated for 30 mins by glucose-oxidase method; format: cell membranes; conditions: Small intestine, Membrane vesicle
[6] = test system: Rattus norvegicus; assay: Antihyperglycemic activity in fasted rat assessed as decrease in blood glucose level at 1 mg/kg measured after 30 mins by maltose loading test relative to control; format: functional; design: scale not given: the % may be the effect or the level left; conditions: 0.5 h
[7] = test system: Rattus norvegicus; assay: Antihyperglycemic activity in fasted rat assessed as decrease in blood glucose level at 1 mg/kg measured after 60 mins by maltose loading test relative to control; format: functional; design: scale not given: the % may be the effect or the level left
[8] = test system: Rattus norvegicus; assay: Antihyperglycemic activity in fasted rat assessed as decrease in AUC of blood glucose level at 1 mg/kg measured for 15 to 60 mins by maltose loading test relative to control; format: functional; design: scale not given: the % may be the effect or the level left; conditions: time 15-60 min
[9] = test system: Rattus norvegicus; assay: Antihyperglycemic activity in fasted rat assessed as decrease in blood glucose level at 1 mg/kg measured after 15 mins by maltose loading test relative to control; format: functional; design: scale not given: the % may be the effect or the level left; conditions: 0.25 h
[10] = test system: Mus musculus; assay: Antihyperglycemic activity in overnight fasted ICR mouse assessed as decrease in AUC of blood glucose level at 1 mg/kg, IG administered via tube and measured after 15 to 60 mins by sucrose loading test relative to control; format: functional; design: scale not given: the % may be the effect or the level left; conditions: time 15-60 min
[11] = test system: Mus musculus; assay: Antihyperglycemic activity in overnight fasted ICR mouse assessed as decrease in AUC of blood glucose level at 10 mg/kg, IG administered via tube and measured after 15 to 60 mins by sucrose loading test relative to control; format: functional; design: scale not given: the % may be the effect or the level left; conditions: time 15-60 min
[12] = test system: Mus musculus; assay: Antihyperglycemic activity in overnight fasted ICR mouse assessed as decrease in blood glucose level at 10 mg/kg, IG administered via tube and measured after 15 mins by sucrose loading test relative to control; format: functional; design: scale not given: the % may be the effect or the level left; conditions: 0.25 h
[13] = test system: Mus musculus; assay: Antihyperglycemic activity in overnight fasted ICR mouse assessed as decrease in blood glucose level at 10 mg/kg, IG administered via tube and measured after 30 mins by sucrose loading test relative to control; format: functional; design: scale not given: the % may be the effect or the level left; conditions: 0.5 h
[14] = test system: Mus musculus; assay: Antihyperglycemic activity in overnight fasted ICR mouse assessed as decrease in blood glucose level at 1 mg/kg, IG administered via tube and measured after 30 mins by sucrose loading test relative to control; format: functional; design: scale not given: the % may be the effect or the level left; conditions: 0.5 h
[15] = test system: Mus musculus; assay: Antihyperglycemic activity in overnight fasted ICR mouse assessed as decrease in blood glucose level at 1 mg/kg, IG administered via tube and measured after 15 mins by sucrose loading test relative to control; format: functional; design: scale not given: the % may be the effect or the level left; conditions: 0.25 h
[16] = test system: Mus musculus; assay: Antihyperglycemic activity in overnight fasted ICR mouse assessed as decrease in blood glucose level at 10 mg/kg, IG administered via tube and measured after 60 mins by sucrose loading test relative to control; format: functional; design: scale not given: the % may be the effect or the level left; conditions: 1 h
[17] = test system: Mus musculus; assay: Antihyperglycemic activity in overnight fasted ICR mouse assessed as decrease in blood glucose level at 1 mg/kg, IG administered via tube and measured after 60 mins by sucrose loading test relative to control; format: functional; design: scale not given: the % may be the effect or the level left
[18] = target: Lysosomal alpha-glucosidase (Rattus norvegicus) (UniProt Q6P7A9); assay: Potency index, ratio of acarbose IC50 to test compound IC50 for inhibition of maltase in rat small intestinal brush border membrane vesicles using maltose as substrate incubated for 30 mins by glucose-oxidase method; format: cell membranes; conditions: Small intestine, Membrane vesicle
[19] = target: Lysosomal alpha-glucosidase (Rattus norvegicus) (UniProt Q6P7A9); assay: Competitive inhibition of maltase in rat small intestinal brush border membrane vesicles using maltose as substrate incubated for 30 mins by Lineweaver-Burk plot analysis; format: cell membranes; conditions: Small intestine, Membrane vesicle
[20] = target: Lysosomal alpha-glucosidase (Rattus norvegicus) (UniProt Q6P7A9); assay: Potency index, ratio of voglibose IC50 to test compound IC50 for inhibition of maltase in rat small intestinal brush border membrane vesicles using maltose as substrate incubated for 30 mins by glucose-oxidase method; format: cell membranes; conditions: Small intestine, Membrane vesicle
[21] = target: Sucrase-isomaltase, intestinal (Rattus norvegicus) (UniProt P23739); assay: Competitive inhibition of sucrase in rat small intestinal brush border membrane vesicles using sucrose as substrate incubated for 30 mins by Lineweaver-Burk plot analysis; format: cell membranes; conditions: Small intestine, Membrane vesicle
[22] = test system: Mus musculus; assay: Antihyperglycemic activity in overnight fasted ICR mouse assessed as decrease in blood glucose level at 20 mg/kg, IG administered via tube and measured after 30 mins by sucrose loading test relative to control; format: functional; design: scale not given: the % may be the effect or the level left; conditions: 0.5 h
[23] = test system: Mus musculus; assay: Antihyperglycemic activity in overnight fasted ICR mouse assessed as decrease in blood glucose level at 20 mg/kg, IG administered via tube and measured after 60 mins by sucrose loading test relative to control; format: functional; design: scale not given: the % may be the effect or the level left; conditions: 1 h
[24] = test system: Mus musculus; assay: Antihyperglycemic activity in overnight fasted ICR mouse assessed as decrease in AUC of blood glucose level at 20 mg/kg, IG administered via tube and measured after 15 to 60 mins by sucrose loading test relative to control; format: functional; design: scale not given: the % may be the effect or the level left; conditions: time 15-60 min
[25] = test system: Mus musculus; assay: Antihyperglycemic activity in overnight fasted ICR mouse assessed as decrease in blood glucose level at 20 mg/kg, IG administered via tube and measured after 15 mins by sucrose loading test relative to control; format: functional; design: scale not given: the % may be the effect or the level left; conditions: 0.25 h

Chain of Sucrase-isomaltase, intestinal (Rattus norvegicus) (P23739 1-1013 limits assumed): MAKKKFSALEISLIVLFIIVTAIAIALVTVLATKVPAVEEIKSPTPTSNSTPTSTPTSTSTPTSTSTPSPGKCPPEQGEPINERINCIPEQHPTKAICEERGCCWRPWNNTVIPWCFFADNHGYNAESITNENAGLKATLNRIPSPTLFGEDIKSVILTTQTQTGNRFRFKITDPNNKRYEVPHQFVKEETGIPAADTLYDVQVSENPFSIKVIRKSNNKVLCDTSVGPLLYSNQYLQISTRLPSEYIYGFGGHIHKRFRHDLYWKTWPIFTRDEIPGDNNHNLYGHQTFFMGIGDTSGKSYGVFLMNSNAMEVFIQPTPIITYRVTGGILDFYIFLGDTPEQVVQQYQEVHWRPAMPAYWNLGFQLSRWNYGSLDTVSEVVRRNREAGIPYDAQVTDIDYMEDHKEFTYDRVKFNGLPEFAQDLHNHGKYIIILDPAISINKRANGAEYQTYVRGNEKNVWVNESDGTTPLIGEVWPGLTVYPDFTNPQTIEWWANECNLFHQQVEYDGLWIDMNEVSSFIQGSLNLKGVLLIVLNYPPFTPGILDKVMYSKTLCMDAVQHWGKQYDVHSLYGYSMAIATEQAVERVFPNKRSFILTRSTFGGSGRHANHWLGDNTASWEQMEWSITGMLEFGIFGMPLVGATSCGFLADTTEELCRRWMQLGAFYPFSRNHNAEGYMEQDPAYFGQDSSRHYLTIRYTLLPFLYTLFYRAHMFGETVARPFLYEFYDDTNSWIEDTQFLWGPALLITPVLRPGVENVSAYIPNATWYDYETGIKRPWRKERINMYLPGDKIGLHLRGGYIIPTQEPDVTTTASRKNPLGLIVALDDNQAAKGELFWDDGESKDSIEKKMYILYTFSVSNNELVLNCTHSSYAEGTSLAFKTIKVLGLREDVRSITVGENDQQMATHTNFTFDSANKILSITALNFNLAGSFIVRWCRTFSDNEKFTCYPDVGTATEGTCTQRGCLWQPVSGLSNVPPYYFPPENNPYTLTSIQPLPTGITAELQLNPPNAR
Chain of Sucrase-isomaltase, intestinal (Rattus norvegicus) (P23739 1014-1841 limits assumed): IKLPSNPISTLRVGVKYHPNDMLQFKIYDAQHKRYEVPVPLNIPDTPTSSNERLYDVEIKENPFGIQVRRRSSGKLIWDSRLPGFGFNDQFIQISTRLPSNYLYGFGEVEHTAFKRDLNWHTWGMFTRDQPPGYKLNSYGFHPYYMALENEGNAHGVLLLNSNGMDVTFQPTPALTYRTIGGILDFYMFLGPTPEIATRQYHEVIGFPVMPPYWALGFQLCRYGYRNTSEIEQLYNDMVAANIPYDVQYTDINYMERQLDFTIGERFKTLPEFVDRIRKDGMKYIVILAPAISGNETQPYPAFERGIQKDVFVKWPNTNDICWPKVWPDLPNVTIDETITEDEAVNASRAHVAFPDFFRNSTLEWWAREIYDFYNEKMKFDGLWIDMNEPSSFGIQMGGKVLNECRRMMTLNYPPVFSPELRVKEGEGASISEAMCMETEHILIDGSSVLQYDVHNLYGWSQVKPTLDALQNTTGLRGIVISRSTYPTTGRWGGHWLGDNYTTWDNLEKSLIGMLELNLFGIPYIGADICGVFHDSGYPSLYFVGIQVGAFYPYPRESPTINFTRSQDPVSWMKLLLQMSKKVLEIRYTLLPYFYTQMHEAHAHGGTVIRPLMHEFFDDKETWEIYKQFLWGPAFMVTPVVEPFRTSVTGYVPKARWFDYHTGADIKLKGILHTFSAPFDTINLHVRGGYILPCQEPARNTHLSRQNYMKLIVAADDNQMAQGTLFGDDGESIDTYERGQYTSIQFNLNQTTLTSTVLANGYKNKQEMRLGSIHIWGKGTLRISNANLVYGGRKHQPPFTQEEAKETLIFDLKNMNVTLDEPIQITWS
T1 sequence (P23739 1-1013 limits assumed): as the sequence (P23739 1-1013 limits assumed) above
T1 sequence (P23739 1014-1841 limits assumed): as the sequence (P23739 1014-1841 limits assumed) above
Chain of Lysosomal alpha-glucosidase (Rattus norvegicus) (Q6P7A9 whole entry): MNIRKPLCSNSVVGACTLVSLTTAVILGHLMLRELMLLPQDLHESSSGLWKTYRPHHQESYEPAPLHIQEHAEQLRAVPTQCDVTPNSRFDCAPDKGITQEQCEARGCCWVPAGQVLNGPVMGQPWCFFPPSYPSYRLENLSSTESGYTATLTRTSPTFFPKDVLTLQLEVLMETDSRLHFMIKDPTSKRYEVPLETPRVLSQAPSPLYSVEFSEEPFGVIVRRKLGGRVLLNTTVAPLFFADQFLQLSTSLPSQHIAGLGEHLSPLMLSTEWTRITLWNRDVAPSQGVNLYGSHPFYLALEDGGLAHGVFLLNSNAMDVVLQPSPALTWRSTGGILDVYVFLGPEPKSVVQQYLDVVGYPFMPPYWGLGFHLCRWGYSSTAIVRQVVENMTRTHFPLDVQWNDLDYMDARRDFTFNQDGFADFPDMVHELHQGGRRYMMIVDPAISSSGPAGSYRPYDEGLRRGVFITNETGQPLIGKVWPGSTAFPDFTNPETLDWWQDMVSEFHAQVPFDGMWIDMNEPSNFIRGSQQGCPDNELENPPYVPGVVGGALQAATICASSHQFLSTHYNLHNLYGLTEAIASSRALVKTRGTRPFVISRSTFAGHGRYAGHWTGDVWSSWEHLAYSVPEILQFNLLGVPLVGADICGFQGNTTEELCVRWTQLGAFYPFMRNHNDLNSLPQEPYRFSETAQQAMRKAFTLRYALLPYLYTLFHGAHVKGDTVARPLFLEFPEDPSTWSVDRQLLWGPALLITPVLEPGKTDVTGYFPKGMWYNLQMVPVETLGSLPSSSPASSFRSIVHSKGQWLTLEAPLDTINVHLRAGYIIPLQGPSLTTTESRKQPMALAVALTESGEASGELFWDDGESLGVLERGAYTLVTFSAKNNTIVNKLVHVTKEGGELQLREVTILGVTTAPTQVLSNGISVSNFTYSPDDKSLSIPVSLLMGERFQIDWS

SMILES: O=[N+]([O-])c1ccc(C2OC[C@@H](O)[C@@H]([C@H](O)C[S@+]3C[C@@H](O)[C@H](O)[C@H]3CO)O2)cc1 (stereo partly drawn)
- IC50 [1]: 4700 nM
- IC50 [2]: 4500 nM

SMILES: OC[C@@H]1[C@@H](O)[C@H](O)C[S@@+]1C[C@@H](O)[C@H]1OC(c2cccc(F)c2)OC[C@H]1O (stereo partly drawn)
- IC50 [1]: 700 nM
- IC50 [2]: 1700 nM

SMILES: OC[C@@H]1[C@@H](O)[C@H](O)C[S@@+]1C[C@@H](O)[C@H]1OC(c2ccccc2Cl)OC[C@H]1O (stereo partly drawn)
- IC50 [1]: 540 nM
- Ki [3]: 474 nM
- IC50 [2]: 410 nM

SMILES: OC[C@@H]1[C@@H](O)[C@H](O)C[S@@+]1C[C@@H](O)[C@H]1OC(c2ccc(C(F)(F)F)cc2)OC[C@H]1O (stereo partly drawn)
- IC50 [1]: 2300 nM
- IC50 [2]: 3500 nM

SMILES: OC[C@@H]1[C@@H](O)[C@H](O)C[S@@+]1C[C@@H](O)[C@H]1OC(c2ccc(Cl)cc2)OC[C@H]1O (stereo partly drawn)
- IC50 [1]: 2300 nM
- IC50 [2]: 4000 nM

SMILES: OC[C@@H]1[C@@H](O)[C@H](O)C[S@@+]1C[C@@H](O)[C@H]1OC(c2ccccc2)OC[C@H]1O (stereo partly drawn)
- Ratio IC50 [4]: 5
- IC50 [1]: 420 nM
- Ki [3]: 758 nM
- Ratio IC50 [5]: 10
- IC50 [2]: 830 nM

SMILES: OCC(CO)N[C@H]1C[C@](O)(CO)[C@@H](O)[C@H](O)[C@H]1O [VOGLIBOSE]
- Activity [6]: 55.1%
- Activity [7]: 43.3%
- Activity [8]: 41.1%
- Activity [9]: 50%

SMILES: O=[N+]([O-])c1cccc(C2OC[C@@H](O)[C@@H]([C@H](O)C[S@+]3C[C@@H](O)[C@H](O)[C@H]3CO)O2)c1 (stereo partly drawn)
- IC50 [1]: 3400 nM
- IC50 [2]: 6700 nM

SMILES: OC[C@@H]1[C@@H](O)[C@H](O)C[S@@+]1C[C@@H](O)[C@@H](O)[C@@H](O)[C@@H](O)CO
- Activity [10]: 29.6%
- Activity [6]: 34.5%
- Activity [7]: 19.8%
- Activity [11]: 40%
- Activity [12]: 37.5%
- IC50 [1]: 1900 nM
- Activity [13]: 48.3%
- Activity [14]: 39.6%
- Activity [8]: 23%
- IC50 [2]: 7800 nM
- Activity [15]: 27.8%
- Activity [16]: 45.1%
- Activity [17]: 35.3%
- Activity [9]: 35.3%

SMILES: OC[C@@H]1[C@@H](O)[C@H](O)C[S@@+]1C[C@@H](O)[C@H]1OC(c2cccc(Cl)c2)OC[C@H]1O (stereo partly drawn)
- IC50 [1]: 1900 nM
- IC50 [2]: 3100 nM

SMILES: Cl.O=[N+]([O-])c1ccccc1C1OC[C@@H](O)[C@@H]([C@H](O)C[S@+]2C[C@@H](O)[C@H](O)[C@H]2CO)O1 (stereo partly drawn)
- Ratio IC50 [18]: 16
- Ratio IC50 [4]: 20
- Activity [10]: 38.1%
- Activity [6]: 54.6%
- Activity [7]: 48.3%
- Activity [11]: 50.1%
- Activity [12]: 49%
- inhibition [19]: Active
- IC50 [1]: 100 nM
- Activity [13]: 60%
- Ratio IC50 [20]: 7.5
- Ki [3]: 352 nM
- Activity [14]: 48%
- Ratio IC50 [5]: 40
- Activity [8]: 45.6%
- IC50 [2]: 200 nM
- Activity [15]: 41.1%
- Activity [16]: 54.6%
- inhibition [21]: Active
- Activity [17]: 43.9%
- Activity [9]: 50%

SMILES: OC[C@@H]1[C@@H](O)[C@H](O)C[S@@+]1C[C@@H](O)[C@H]1OC(c2ccccc2C(F)(F)F)OC[C@H]1O.[Cl-] (stereo partly drawn)
- Activity [10]: 34%
- Activity [6]: 48.7%
- Activity [7]: 43.2%
- Activity [11]: 45.8%
- Activity [12]: 43.5%
- inhibition [19]: Active
- IC50 [1]: 220 nM
- Activity [13]: 56.6%
- Ki [3]: 398 nM
- Activity [14]: 47.3%
- Ratio IC50 [5]: 40
- Activity [8]: 39.7%
- IC50 [2]: 230 nM
- Activity [15]: 35.1%
- Activity [16]: 51%
- inhibition [21]: Active
- Activity [17]: 37.8%
- Activity [9]: 45.7%

SMILES: OC[C@@H]1[C@@H](O)[C@H](O)C[S@@+]1C[C@@H](O)[C@H]1OC(c2cccc(C(F)(F)F)c2)OC[C@H]1O (stereo partly drawn)
- IC50 [1]: 300 nM
- IC50 [2]: 1500 nM

SMILES: OC[C@@H]1[C@@H](O)[C@H](O)C[S@@+]1C[C@@H](O)[C@H]1OC(c2ccc(F)cc2)OC[C@H]1O (stereo partly drawn)
- IC50 [1]: 2500 nM
- IC50 [2]: 3000 nM

SMILES: OC[C@@H]1[C@@H](O)[C@H](O)C[S@@+]1C[C@@H](O)[C@H]1OC(c2ccccc2F)OC[C@H]1O (stereo partly drawn)
- IC50 [1]: 400 nM
- Ki [3]: 562 nM
- IC50 [2]: 840 nM

SMILES: C[C@H]1O[C@H](O[C@H]2[C@H](O)[C@@H](O)[C@@H](O[C@H]3[C@H](O)[C@@H](O)C(O)O[C@@H]3CO)O[C@@H]2CO)[C@H](O)[C@@H](O)[C@@H]1N[C@H]1C=C(CO)[C@@H](O)[C@H](O)[C@H]1O (stereo partly drawn) [ACARBOSE]
- Activity [22]: 50.9%
- Activity [23]: 45.1%
- Activity [24]: 40%
- Activity [25]: 40.2%
